Data: the OligoGym collection
Oligonucleotides are written 5' to 3', each unit as a sugar letter and its base; * is a phosphorothioate linkage, no mark a phosphodiester; rarer units and linkages stand in square brackets, end groups in braces. Plain capitals give the bases only. Oligonucleotides are given in HELM: sugar(base)linkage, 5' to 3'; d 2'-deoxyribose, r ribose, m 2'-O-methylribose, p phosphate. ss, as = sense and antisense strand; d = 2'-deoxy (DNA); r = 2'-OH (RNA)

These substances were tested against UBE2M (assay: reporter assay of Huesken 2005). Conditions: siRNA.
Note: test concentration or dose not given here.

Substance	normalised inhibition (eCFP-eYFP dual reporter)
sense rGrGrCrCrUrGrCrArGrUrArUrCrUrCrUrUrCrUdTdT / antisense rArGrArArGrArGrArUrArCrUrGrCrArGrGrCrCdAdT	80.2%
sense rGrGrCrGrGrCrGrCrArGrCrUrGrCrGrGrArUrCdTdT / antisense rGrArUrCrCrGrCrArGrCrUrGrCrGrCrCrGrCrCdGdA	71.7%
sense rGrGrCrGrGrCrUrGrUrUrUrGrArGrCrArGrArAdTdT / antisense rUrUrCrUrGrCrUrCrArArArCrArGrCrCrGrCrCdGdG	76.6%
sense rGrGrGrCrArGrCrArGrCrArArGrArArGrGrCrGdTdT / antisense rCrGrCrCrUrUrCrUrUrGrCrUrGrCrUrGrCrCrCdTdT	58.9%
sense rGrGrGrCrCrArGrGrGrUrUrArCrCrCrGrCrArUdTdT / antisense rArUrGrCrGrGrGrUrArArCrCrCrUrGrGrCrCrCdAdC	79.3%
sense rGrGrGrCrGrGrCrArCrCrArArGrGrGrCrArGrCdTdT / antisense rGrCrUrGrCrCrCrUrUrGrGrUrGrCrCrGrCrCrCdGdC	64.9%
sense rGrGrGrUrGrGrCrUrArCrArUrCrGrGrCrUrCrCdTdT / antisense rGrGrArGrCrCrGrArUrGrUrArGrCrCrArCrCrCdCdG	58.1%
sense rGrGrUrCrUrArUrCrArCrCrCrCrArArCrArUrUdTdT / antisense rArArUrGrUrUrGrGrGrGrUrGrArUrArGrArCrCdAdT	79.7%
sense rGrGrUrGrArArGrUrGrUrGrArGrArCrArArUrGdTdT / antisense rCrArUrUrGrUrCrUrCrArCrArCrUrUrCrArCrCdTdT	81.7%
sense rGrUrCrArUrCrUrGrUrCrCrUrGrArUrGrArGrGdTdT / antisense rCrCrUrCrArUrCrArGrGrArCrArGrArUrGrArCdCdA	58.9%
sense rGrUrCrCrUrGrArUrGrArGrGrGrCrUrUrCrUrAdTdT / antisense rUrArGrArArGrCrCrCrUrCrArUrCrArGrGrArCdAdG	80.3%
sense rGrUrCrCrUrUrArCrGrArUrArArArCrUrCrCrAdTdT / antisense rUrGrGrArGrUrUrUrArUrCrGrUrArArGrGrArCdTdG	76.7%
sense rGrUrGrArUrArUrCrArGrCrUrUrCrUrCrArGrAdTdT / antisense rUrCrUrGrArGrArArGrCrUrGrArUrArUrCrArCdAdC	70.3%
sense rGrUrGrGrGrCrCrArGrGrGrUrUrArCrCrCrGrCdTdT / antisense rGrCrGrGrGrUrArArCrCrCrUrGrGrCrCrCrArCdCdT	56.4%
sense rGrUrUrCrArGrUrUrUrUrArArGrGrUrGrGrGrCdTdT / antisense rGrCrCrCrArCrCrUrUrArArArArCrUrGrArArCdAdC	53.9%
sense rUrArArGrGrUrGrGrGrCrCrArGrGrGrUrUrArCdTdT / antisense rGrUrArArCrCrCrUrGrGrCrCrCrArCrCrUrUrAdAdA	69.9%
sense rUrArArUrUrUrArUrGrGrCrCrUrGrCrArGrUrAdTdT / antisense rUrArCrUrGrCrArGrGrCrCrArUrArArArUrUrAdTdG	67%
sense rUrCrArCrCrCrCrArArCrArUrUrGrArCrCrUrCdTdT / antisense rGrArGrGrUrCrArArUrGrUrUrGrGrGrGrUrGrAdTdA	65.4%
sense rUrCrArUrCrUrGrUrCrCrUrGrArUrGrArGrGrGdTdT / antisense rCrCrCrUrCrArUrCrArGrGrArCrArGrArUrGrAdCdC	57.5%
sense rUrCrUrCrUrUrCrUrUrGrGrArGrCrCrCrArArCdTdT / antisense rGrUrUrGrGrGrCrUrCrCrArArGrArArGrArGrAdTdA	69.7%
sense rUrCrUrUrCrUrUrGrGrArGrCrCrCrArArCrCrCdTdT / antisense rGrGrGrUrUrGrGrGrCrUrCrCrArArGrArArGrAdGdA	56.1%
sense rUrGrArArCrArArGrGrArGrGrCrCrGrCrArGrAdTdT / antisense rUrCrUrGrCrGrGrCrCrUrCrCrUrUrGrUrUrCrAdGdT	65.9%
sense rUrGrCrArGrArArCrArArCrCrGrGrCrGrGrCrUdTdT / antisense rArGrCrCrGrCrCrGrGrUrUrGrUrUrCrUrGrCrAdGdG	67.6%
sense rUrUrCrUrArCrArArGrArGrUrGrGrGrArArGrUdTdT / antisense rArCrUrUrCrCrCrArCrUrCrUrUrGrUrArGrArAdGdC	68.9%
sense rUrUrUrGrUrGrUrUrCrArGrUrUrUrUrArArGrGdTdT / antisense rCrCrUrUrArArArArCrUrGrArArCrArCrArArAdCdT	51.1%

These substances were tested against SOST (assay: reporter assay of Huesken 2005). Conditions: siRNA.

Substance	normalised inhibition (eCFP-eYFP dual reporter)
RNA1{r(A)p.r(A)p.r(A)p.r(U)p.r(C)p.r(A)p.r(U)p.r(C)p.r(C)p.r(C)p.r(C)p.r(G)p.r(A)p.r(G)p.r(C)p.r(U)p.r(C)p.r(G)p.r(G)p.d(T)p.d(T)}|RNA2{r(C)p.r(C)p.r(G)p.r(A)p.r(G)p.r(C)p.r(U)p.r(C)p.r(G)p.r(G)p.r(G)p.r(G)p.r(A)p.r(U)p.r(G)p.r(A)p.r(U)p.r(U)p.r(U)p.d(C)p.d(C)}$$$RNA1{StrandType:ss}|RNA2{StrandType:as}$	49.8%
RNA1{r(A)p.r(A)p.r(C)p.r(A)p.r(A)p.r(G)p.r(A)p.r(C)p.r(C)p.r(A)p.r(U)p.r(G)p.r(A)p.r(A)p.r(C)p.r(C)p.r(G)p.r(G)p.r(G)p.d(T)p.d(T)}|RNA2{r(C)p.r(C)p.r(C)p.r(G)p.r(G)p.r(U)p.r(U)p.r(C)p.r(A)p.r(U)p.r(G)p.r(G)p.r(U)p.r(C)p.r(U)p.r(U)p.r(G)p.r(U)p.r(U)p.d(G)p.d(T)}$$$RNA1{StrandType:ss}|RNA2{StrandType:as}$	69.7%
RNA1{r(A)p.r(A)p.r(G)p.r(A)p.r(C)p.r(G)p.r(U)p.r(G)p.r(U)p.r(C)p.r(C)p.r(G)p.r(A)p.r(G)p.r(U)p.r(A)p.r(C)p.r(A)p.r(G)p.d(T)p.d(T)}|RNA2{r(C)p.r(U)p.r(G)p.r(U)p.r(A)p.r(C)p.r(U)p.r(C)p.r(G)p.r(G)p.r(A)p.r(C)p.r(A)p.r(C)p.r(G)p.r(U)p.r(C)p.r(U)p.r(U)p.d(T)p.d(G)}$$$RNA1{StrandType:ss}|RNA2{StrandType:as}$	87.1%
RNA1{r(A)p.r(A)p.r(G)p.r(G)p.r(A)p.r(C)p.r(U)p.r(U)p.r(C)p.r(G)p.r(G)p.r(G)p.r(A)p.r(C)p.r(C)p.r(G)p.r(A)p.r(G)p.r(G)p.d(T)p.d(T)}|RNA2{r(C)p.r(C)p.r(U)p.r(C)p.r(G)p.r(G)p.r(U)p.r(C)p.r(C)p.r(C)p.r(G)p.r(A)p.r(A)p.r(G)p.r(U)p.r(C)p.r(C)p.r(U)p.r(U)p.d(G)p.d(A)}$$$RNA1{StrandType:ss}|RNA2{StrandType:as}$	58.7%
RNA1{r(A)p.r(C)p.r(A)p.r(A)p.r(C)p.r(A)p.r(A)p.r(G)p.r(A)p.r(C)p.r(C)p.r(A)p.r(U)p.r(G)p.r(A)p.r(A)p.r(C)p.r(C)p.r(G)p.d(T)p.d(T)}|RNA2{r(C)p.r(G)p.r(G)p.r(U)p.r(U)p.r(C)p.r(A)p.r(U)p.r(G)p.r(G)p.r(U)p.r(C)p.r(U)p.r(U)p.r(G)p.r(U)p.r(U)p.r(G)p.r(U)p.d(T)p.d(C)}$$$RNA1{StrandType:ss}|RNA2{StrandType:as}$	52.2%
RNA1{r(A)p.r(C)p.r(C)p.r(A)p.r(U)p.r(G)p.r(A)p.r(A)p.r(C)p.r(C)p.r(G)p.r(G)p.r(G)p.r(C)p.r(G)p.r(G)p.r(A)p.r(G)p.r(A)p.d(T)p.d(T)}|RNA2{r(U)p.r(C)p.r(U)p.r(C)p.r(C)p.r(G)p.r(C)p.r(C)p.r(C)p.r(G)p.r(G)p.r(U)p.r(U)p.r(C)p.r(A)p.r(U)p.r(G)p.r(G)p.r(U)p.d(C)p.d(T)}$$$RNA1{StrandType:ss}|RNA2{StrandType:as}$	69.5%
RNA1{r(A)p.r(C)p.r(C)p.r(G)p.r(G)p.r(A)p.r(G)p.r(C)p.r(U)p.r(G)p.r(G)p.r(A)p.r(G)p.r(A)p.r(A)p.r(C)p.r(A)p.r(A)p.r(C)p.d(T)p.d(T)}|RNA2{r(G)p.r(U)p.r(U)p.r(G)p.r(U)p.r(U)p.r(C)p.r(U)p.r(C)p.r(C)p.r(A)p.r(G)p.r(C)p.r(U)p.r(C)p.r(C)p.r(G)p.r(G)p.r(U)p.d(G)p.d(G)}$$$RNA1{StrandType:ss}|RNA2{StrandType:as}$	83.3%
RNA1{r(A)p.r(C)p.r(G)p.r(U)p.r(G)p.r(U)p.r(C)p.r(C)p.r(G)p.r(A)p.r(G)p.r(U)p.r(A)p.r(C)p.r(A)p.r(G)p.r(C)p.r(U)p.r(G)p.d(T)p.d(T)}|RNA2{r(C)p.r(A)p.r(G)p.r(C)p.r(U)p.r(G)p.r(U)p.r(A)p.r(C)p.r(U)p.r(C)p.r(G)p.r(G)p.r(A)p.r(C)p.r(A)p.r(C)p.r(G)p.r(U)p.d(C)p.d(T)}$$$RNA1{StrandType:ss}|RNA2{StrandType:as}$	74.9%
RNA1{r(A)p.r(G)p.r(A)p.r(C)p.r(C)p.r(A)p.r(U)p.r(G)p.r(A)p.r(A)p.r(C)p.r(C)p.r(G)p.r(G)p.r(G)p.r(C)p.r(G)p.r(G)p.r(A)p.d(T)p.d(T)}|RNA2{r(U)p.r(C)p.r(C)p.r(G)p.r(C)p.r(C)p.r(C)p.r(G)p.r(G)p.r(U)p.r(U)p.r(C)p.r(A)p.r(U)p.r(G)p.r(G)p.r(U)p.r(C)p.r(U)p.d(T)p.d(G)}$$$RNA1{StrandType:ss}|RNA2{StrandType:as}$	78.8%
RNA1{r(A)p.r(G)p.r(C)p.r(U)p.r(C)p.r(A)p.r(A)p.r(G)p.r(G)p.r(A)p.r(C)p.r(U)p.r(U)p.r(C)p.r(G)p.r(G)p.r(G)p.r(A)p.r(C)p.d(T)p.d(T)}|RNA2{r(G)p.r(U)p.r(C)p.r(C)p.r(C)p.r(G)p.r(A)p.r(A)p.r(G)p.r(U)p.r(C)p.r(C)p.r(U)p.r(U)p.r(G)p.r(A)p.r(G)p.r(C)p.r(U)p.d(C)p.d(C)}$$$RNA1{StrandType:ss}|RNA2{StrandType:as}$	64.7%
